# pIC50: −log10 of the molar value. Active and inactive are the calls of the source.
# How the values were obtained:
# Cytochrome P450 2C9 = Cytochrome P450 2C9 (Homo sapiens, UniProt P11712)
# Cytochrome P450 1A2 = target: T1, Cytochrome P450 1A2 (Homo sapiens, UniProt P05177);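 further: PubChem cytochrome P450 panel assay, CYP1A2 panel member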
# T1 sequence (P05177 whole entry): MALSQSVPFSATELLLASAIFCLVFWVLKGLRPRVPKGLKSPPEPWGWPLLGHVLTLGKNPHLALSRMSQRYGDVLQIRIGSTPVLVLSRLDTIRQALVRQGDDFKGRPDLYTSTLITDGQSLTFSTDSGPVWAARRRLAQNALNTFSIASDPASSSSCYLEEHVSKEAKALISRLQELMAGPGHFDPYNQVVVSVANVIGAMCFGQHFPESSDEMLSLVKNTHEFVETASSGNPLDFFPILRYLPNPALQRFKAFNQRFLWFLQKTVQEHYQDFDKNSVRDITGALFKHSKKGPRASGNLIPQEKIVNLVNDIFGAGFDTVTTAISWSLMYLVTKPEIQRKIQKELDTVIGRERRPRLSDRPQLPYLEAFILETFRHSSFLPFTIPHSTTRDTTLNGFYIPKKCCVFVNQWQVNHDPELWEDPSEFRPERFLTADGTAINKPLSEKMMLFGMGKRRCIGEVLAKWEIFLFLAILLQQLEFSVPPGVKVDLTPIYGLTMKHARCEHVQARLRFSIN
# Cytochrome P450 2D6 = Cytochrome P450 2D6 (Homo sapiens, UniProt P10635);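 further: CYP2D6 member of a cytochrome P450 panel assay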
# Cannabinoid receptor 2 [1] = target: T2, Cannabinoid receptor 2 (Homo sapiens, UniProt P34972); test: SAR analysis of agonists of the Cannabinoid Receptor 2 using an Image-Based Assay - Set 2. [Related pubchem assays (depositor defined):AID1961, AID1965]; format: functional
# [2] = target: G-protein coupled receptor 55 (Homo sapiens, UniProt Q9Y2T6); test: SAR analysis of selective Agonists of GPR55 using an Image-Based Assay. [Related pubchem assays (depositor defined):AID1961, AID1965]; format: functional
# Cannabinoid receptor 2 [3] = target: T2, Cannabinoid receptor 2; test: SAR analysis of antagonists of the Cannabinoid Receptor 2 using an Image-Based Assay - Set 2. [Related pubchem assays (depositor defined):AID1961, AID1965]; format: functional
# Cannabinoid receptor 1 = Cannabinoid receptor 1 (Homo sapiens, UniProt P21554); test: SAR analysis of antagonists of the Cannabinoid Receptor 1 using an Image-Based Assay. [Related pubchem assays (depositor defined):AID1961, AID1965]; format: functional
# [4] = target: T3, Voltage-gated N-type calcium channel alpha-1B subunit/Amyloid beta A4 precursor protein-binding family A member 1 (Homo sapiens, UniProt Q00975+Q02410); format: protein assay
# [5] = target: T4, Dual specificity protein phosphatase 3 (Homo sapiens, UniProt P51452); test: VHR1 phosphatase inhibitors, primary screen, biochemical, absorbance, uHTS (AID 1654)
# [6] = target: T4, Dual specificity protein phosphatase 3; test: VHR1 phosphatase inhibitors, biochemical (AID 1878)
# [7] = target: T3, Voltage-gated N-type calcium channel alpha-1B subunit/Amyloid beta A4 precursor protein-binding family A member 1; format: protein assay; remark: listed apart in the source
# [8] = target: T5, Dual specificity protein phosphatase 6 (Rattus norvegicus, UniProt Q64346); test: inhibition of rat DUSP6 enzyme activity – biochemical, in vitro, primary screen (AID 425)
# T5 sequence (Q64346 whole entry): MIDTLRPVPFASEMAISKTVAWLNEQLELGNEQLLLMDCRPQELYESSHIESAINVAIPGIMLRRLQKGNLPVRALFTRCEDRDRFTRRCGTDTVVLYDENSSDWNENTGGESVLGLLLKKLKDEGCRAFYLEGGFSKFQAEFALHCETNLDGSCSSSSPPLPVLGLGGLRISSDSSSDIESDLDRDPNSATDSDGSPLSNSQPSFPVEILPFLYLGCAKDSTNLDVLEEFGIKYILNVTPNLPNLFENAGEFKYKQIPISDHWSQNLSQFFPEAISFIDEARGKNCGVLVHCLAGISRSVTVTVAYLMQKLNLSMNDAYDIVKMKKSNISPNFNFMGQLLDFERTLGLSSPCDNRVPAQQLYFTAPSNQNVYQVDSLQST
# [9] = target: T6, Serine/threonine-protein phosphatase (Candida dubliniensis (strain CD36 / CBS 7987 / NCPF 3949 / NRRLY-17841) (Yeast), UniProt B9W6M3); test: Fluorescence Cell-Based Secondary Assay to Identify Inhibitors of Calcineurin. [Related pubchem assays (depositor defined):AID1979, AID2007]; format: functional
# T6 sequence (B9W6M3 whole entry): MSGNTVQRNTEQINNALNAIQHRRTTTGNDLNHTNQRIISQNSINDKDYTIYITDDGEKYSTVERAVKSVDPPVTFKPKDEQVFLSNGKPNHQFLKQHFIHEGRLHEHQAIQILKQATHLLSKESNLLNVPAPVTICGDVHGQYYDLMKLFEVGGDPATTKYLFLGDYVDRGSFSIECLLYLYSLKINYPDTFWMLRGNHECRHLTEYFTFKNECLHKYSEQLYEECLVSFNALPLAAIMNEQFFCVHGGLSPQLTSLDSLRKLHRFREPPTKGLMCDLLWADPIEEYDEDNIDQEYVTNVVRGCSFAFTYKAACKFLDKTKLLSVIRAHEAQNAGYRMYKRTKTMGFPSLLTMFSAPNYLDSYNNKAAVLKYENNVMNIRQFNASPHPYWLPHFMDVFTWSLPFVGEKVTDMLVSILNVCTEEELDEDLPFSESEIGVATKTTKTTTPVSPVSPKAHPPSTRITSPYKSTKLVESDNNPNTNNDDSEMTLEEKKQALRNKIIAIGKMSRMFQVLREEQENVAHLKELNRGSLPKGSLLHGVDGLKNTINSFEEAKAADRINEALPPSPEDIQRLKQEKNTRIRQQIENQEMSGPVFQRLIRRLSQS
# [10] = target: T7, Delta-type opioid receptor (Homo sapiens, UniProt P41143); test: HTS Image-Based Screen for Antagonists of the DOR Receptor. [Related pubchem assays (depositor defined):AID1777, AID1785, AID1786, AID2133]; format: functional
# Beta-galactosidase = Beta-galactosidase (Escherichia coli, UniProt Q8VNN2); format: functional
# [11] = NIH3T3 cell viability loss – ATP luminescence, mouse fibroblasts, counter-screen, dose response (AID 2010); format: functional, cell-based;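 further: cells exposed to compound for about 90 hours before reading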
# [12] = target: T7, Delta-type opioid receptor; test: HTS Image-Based Screen for Agonists of the DOR Receptor. [Related pubchem assays (depositor defined):AID1777, AID1786, AID2133]; format: functional
# Mu-type opioid receptor = Mu-type opioid receptor (Homo sapiens, UniProt P35372); test: HTS Image-Based Screen for Agonists of the MOR Receptor. [Related pubchem assays (depositor defined):AID1777, AID1785, AID1786, AID2133]; format: functional;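 further: imaging of beta-arrestin GFP recruitment into spots after receptor activation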
# Vero [13] = test: cells; format: functional, cell-based; details: Chlorocebus sabaeus
# [14] = Trypanosoma cruzi growth suppression in host cells – NIH3T3 host cells, beta-gal luminescence, confirmation (AID 2044); format: functional, cell-based;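 further: intracellular parasites grown in NIH/3T3 mouse fibroblasts as host cells; luminescent beta-galactosidase reporter signal from transgenic T. cruzi replicating inside host cells; inhibitors lower the luminescence signal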
# [15] = target: T8, Kappa-type opioid receptor (Homo sapiens, UniProt P41145); format: functional
# Vero [16] = test: cells; format: functional; details: Chlorocebus sabaeus
# [17] = target: T8, Kappa-type opioid receptor; format: functional; remark: listed apart in the source
# H9c2 = test: cells; format: functional, cell-based; details: Rattus norvegicus, H9c2, Myocardium;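 further: confirmatory concentration-response retest of ultra-high-throughput screening hits for modulation of myocardial damage; cell death induced by hydrogen peroxide oxidative stress; compound pretreatment for 60 min then peroxide exposure for 2 h; potency is for protecting the cells against peroxide damage rather than for killing them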
# Streptococcus = test: GAS UMAA2166 growth inhibition – luminescence, BacTiterGlo, counter-screen for streptokinase expression inhibitor project, dose response (AID 1915); format: functional, organism-based;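 further: potency for reduction of bacterial viability or growth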
# [18] = tested on: Streptococcus sp. 'group A'; test: Streptococcus pyogenes SK(-)GAS viability under kanamycin – luminescence, BacTiterGlo, confirmation, counter-screen for streptokinase expression inhibitor project, dose response (AID 1900); format: functional, organism-based
# [19] = target: Nucleotide-binding oligomerization domain-containing protein 1 (Homo sapiens, UniProt Q9Y239); test: SAR analysis of compounds that inhibit NOD1 - Set 3. [Related pubchem assays (depositor defined):AID1566, AID1575, AID1578, AID1849, AID1852, AID2333, AID2335, AID2466]; format: functional
# [20] = target: Nucleotide-binding oligomerization domain-containing protein 2 (Homo sapiens, UniProt Q9HC29); test: inhibition of MDP-driven NOD2 NF-kB reporter – cell-based, set 3, SAR follow-up (AID 2799); format: functional
# HEK293 = test: SAR analysis of compounds that are cytotoxic to HEK293 - Set 3. [Related pubchem assays (depositor defined):AID1575, AID1578, AID1848, AID1849, AID2001, AID2333, AID2334, AID2335, AID2337, AID2469]; format: functional, cell-based; details: Homo sapiens
# Tumor necrosis factor = Tumor necrosis factor (Homo sapiens, UniProt P01375); test: analog potency on TNFa NF-kB signaling – cell-based, set 3, SAR follow-up (AID 2801); format: functional
# [21] = target: Lysine-specific demethylase 4A (Homo sapiens, UniProt O75164); test: inhibition of JMJD2A H3K9me3 demethylation – biochemical, DELFIA europium, cherry-picked samples, selectivity assay for GASC-1 inhibitor project, dose response (AID 488840)
# Fatty acid synthase [22] = target: T9, Fatty acid synthase (Homo sapiens, UniProt P49327); test: inhibition of human FAS-TE enzyme activity – biochemical, kinetic fluorescence intensity, dose response (AID 624326); format: functional;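 further: rate of fluorescence rise from hydrolysis of a fluorogenic O-methyl fluorescein ester substrate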
# Fatty acid synthase [23] = target: T9, Fatty acid synthase; test: inhibition of human FAS-TE enzyme activity – biochemical, endpoint fluorescence intensity, uHTS hits, dose response (AID 624327); format: functional;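 further: fluorescence from hydrolysis of an O-methyl fluorescein acyl ester substrate by the enzyme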
# [24] = target: T10, Lysine-specific demethylase 4C (Homo sapiens, UniProt Q9H3R0); test: inhibition of JMJD2C H3K9me3 demethylation – biochemical, DELFIA europium, cherry-picked samples, dose response (AID 488835); format: functional
# T10 sequence (Q9H3R0 whole entry): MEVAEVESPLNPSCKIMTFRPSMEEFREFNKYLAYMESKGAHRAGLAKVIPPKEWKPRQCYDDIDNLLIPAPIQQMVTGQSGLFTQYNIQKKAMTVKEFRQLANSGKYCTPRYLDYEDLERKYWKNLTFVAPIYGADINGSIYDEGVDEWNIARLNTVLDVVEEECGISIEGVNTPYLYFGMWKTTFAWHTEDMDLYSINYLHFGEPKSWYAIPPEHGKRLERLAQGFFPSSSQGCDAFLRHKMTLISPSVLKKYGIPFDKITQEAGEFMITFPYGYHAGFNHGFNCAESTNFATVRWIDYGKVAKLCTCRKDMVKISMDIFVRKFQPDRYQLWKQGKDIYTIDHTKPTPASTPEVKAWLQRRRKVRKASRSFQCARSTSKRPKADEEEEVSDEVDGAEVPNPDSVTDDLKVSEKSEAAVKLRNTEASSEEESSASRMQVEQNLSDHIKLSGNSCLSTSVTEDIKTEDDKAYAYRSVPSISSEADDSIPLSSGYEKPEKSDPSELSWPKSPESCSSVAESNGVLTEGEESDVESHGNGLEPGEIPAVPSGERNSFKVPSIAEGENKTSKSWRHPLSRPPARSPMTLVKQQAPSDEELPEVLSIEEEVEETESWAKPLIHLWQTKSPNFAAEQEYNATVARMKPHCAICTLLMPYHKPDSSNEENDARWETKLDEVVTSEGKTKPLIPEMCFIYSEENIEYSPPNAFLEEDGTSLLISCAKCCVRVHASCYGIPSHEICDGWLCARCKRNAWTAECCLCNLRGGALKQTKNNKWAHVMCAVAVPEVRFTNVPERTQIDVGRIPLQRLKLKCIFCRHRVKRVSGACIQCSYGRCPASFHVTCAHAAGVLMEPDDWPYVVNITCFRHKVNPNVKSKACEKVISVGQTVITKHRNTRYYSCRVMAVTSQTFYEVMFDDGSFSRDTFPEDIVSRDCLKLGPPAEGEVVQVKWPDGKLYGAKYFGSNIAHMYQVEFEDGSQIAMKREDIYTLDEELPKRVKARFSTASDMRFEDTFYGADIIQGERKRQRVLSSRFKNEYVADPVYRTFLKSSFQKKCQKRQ
# [25] = viability loss of HMLE_sh_eGFP cells – cell-based, luminescence, counter-screen for HMLE_sh_ECad selective toxicity project, dose response (AID 463074); format: functional, Homo sapiens;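 further: HMLE human mammary epithelial cells expressing control shRNA against eGFP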
# [26] = Luminescence Cell-Based Dose Retest to Confirm Inhibitors of Cancer Stem Cells. [Related pubchem assays (depositor defined):AID2717, AID2721]; format: functional; details: Homo sapiens
# T7 sequence (P41143 whole entry): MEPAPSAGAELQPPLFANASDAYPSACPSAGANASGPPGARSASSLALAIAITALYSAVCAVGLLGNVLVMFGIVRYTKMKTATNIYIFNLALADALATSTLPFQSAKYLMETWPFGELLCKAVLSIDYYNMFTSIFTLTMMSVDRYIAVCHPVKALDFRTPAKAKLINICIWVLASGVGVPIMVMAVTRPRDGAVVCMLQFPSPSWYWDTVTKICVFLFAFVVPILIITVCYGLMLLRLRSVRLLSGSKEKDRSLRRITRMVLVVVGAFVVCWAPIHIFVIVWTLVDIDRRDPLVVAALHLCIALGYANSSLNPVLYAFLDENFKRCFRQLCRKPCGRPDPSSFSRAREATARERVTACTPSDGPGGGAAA
# T8 sequence (P41145 whole entry): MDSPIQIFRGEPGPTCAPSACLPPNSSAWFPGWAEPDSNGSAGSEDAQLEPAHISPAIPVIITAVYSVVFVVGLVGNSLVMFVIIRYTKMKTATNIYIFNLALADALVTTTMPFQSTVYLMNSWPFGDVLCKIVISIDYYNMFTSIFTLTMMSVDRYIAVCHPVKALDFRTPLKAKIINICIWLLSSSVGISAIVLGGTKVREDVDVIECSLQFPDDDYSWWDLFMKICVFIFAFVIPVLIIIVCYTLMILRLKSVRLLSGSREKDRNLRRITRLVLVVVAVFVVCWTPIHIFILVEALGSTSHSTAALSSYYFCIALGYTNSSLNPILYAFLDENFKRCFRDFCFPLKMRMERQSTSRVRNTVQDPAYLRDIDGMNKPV
# T2 sequence (P34972 whole entry): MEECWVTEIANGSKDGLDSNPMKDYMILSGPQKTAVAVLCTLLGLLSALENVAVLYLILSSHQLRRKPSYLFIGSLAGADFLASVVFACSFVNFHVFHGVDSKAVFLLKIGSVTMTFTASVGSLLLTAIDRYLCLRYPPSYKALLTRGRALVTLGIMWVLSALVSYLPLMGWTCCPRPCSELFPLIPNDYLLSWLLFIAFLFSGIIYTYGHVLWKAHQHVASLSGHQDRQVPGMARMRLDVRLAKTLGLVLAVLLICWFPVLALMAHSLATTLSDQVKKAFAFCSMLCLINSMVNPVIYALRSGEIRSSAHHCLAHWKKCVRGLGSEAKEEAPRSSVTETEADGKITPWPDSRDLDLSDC
# T3 sequence (Q00975 whole entry): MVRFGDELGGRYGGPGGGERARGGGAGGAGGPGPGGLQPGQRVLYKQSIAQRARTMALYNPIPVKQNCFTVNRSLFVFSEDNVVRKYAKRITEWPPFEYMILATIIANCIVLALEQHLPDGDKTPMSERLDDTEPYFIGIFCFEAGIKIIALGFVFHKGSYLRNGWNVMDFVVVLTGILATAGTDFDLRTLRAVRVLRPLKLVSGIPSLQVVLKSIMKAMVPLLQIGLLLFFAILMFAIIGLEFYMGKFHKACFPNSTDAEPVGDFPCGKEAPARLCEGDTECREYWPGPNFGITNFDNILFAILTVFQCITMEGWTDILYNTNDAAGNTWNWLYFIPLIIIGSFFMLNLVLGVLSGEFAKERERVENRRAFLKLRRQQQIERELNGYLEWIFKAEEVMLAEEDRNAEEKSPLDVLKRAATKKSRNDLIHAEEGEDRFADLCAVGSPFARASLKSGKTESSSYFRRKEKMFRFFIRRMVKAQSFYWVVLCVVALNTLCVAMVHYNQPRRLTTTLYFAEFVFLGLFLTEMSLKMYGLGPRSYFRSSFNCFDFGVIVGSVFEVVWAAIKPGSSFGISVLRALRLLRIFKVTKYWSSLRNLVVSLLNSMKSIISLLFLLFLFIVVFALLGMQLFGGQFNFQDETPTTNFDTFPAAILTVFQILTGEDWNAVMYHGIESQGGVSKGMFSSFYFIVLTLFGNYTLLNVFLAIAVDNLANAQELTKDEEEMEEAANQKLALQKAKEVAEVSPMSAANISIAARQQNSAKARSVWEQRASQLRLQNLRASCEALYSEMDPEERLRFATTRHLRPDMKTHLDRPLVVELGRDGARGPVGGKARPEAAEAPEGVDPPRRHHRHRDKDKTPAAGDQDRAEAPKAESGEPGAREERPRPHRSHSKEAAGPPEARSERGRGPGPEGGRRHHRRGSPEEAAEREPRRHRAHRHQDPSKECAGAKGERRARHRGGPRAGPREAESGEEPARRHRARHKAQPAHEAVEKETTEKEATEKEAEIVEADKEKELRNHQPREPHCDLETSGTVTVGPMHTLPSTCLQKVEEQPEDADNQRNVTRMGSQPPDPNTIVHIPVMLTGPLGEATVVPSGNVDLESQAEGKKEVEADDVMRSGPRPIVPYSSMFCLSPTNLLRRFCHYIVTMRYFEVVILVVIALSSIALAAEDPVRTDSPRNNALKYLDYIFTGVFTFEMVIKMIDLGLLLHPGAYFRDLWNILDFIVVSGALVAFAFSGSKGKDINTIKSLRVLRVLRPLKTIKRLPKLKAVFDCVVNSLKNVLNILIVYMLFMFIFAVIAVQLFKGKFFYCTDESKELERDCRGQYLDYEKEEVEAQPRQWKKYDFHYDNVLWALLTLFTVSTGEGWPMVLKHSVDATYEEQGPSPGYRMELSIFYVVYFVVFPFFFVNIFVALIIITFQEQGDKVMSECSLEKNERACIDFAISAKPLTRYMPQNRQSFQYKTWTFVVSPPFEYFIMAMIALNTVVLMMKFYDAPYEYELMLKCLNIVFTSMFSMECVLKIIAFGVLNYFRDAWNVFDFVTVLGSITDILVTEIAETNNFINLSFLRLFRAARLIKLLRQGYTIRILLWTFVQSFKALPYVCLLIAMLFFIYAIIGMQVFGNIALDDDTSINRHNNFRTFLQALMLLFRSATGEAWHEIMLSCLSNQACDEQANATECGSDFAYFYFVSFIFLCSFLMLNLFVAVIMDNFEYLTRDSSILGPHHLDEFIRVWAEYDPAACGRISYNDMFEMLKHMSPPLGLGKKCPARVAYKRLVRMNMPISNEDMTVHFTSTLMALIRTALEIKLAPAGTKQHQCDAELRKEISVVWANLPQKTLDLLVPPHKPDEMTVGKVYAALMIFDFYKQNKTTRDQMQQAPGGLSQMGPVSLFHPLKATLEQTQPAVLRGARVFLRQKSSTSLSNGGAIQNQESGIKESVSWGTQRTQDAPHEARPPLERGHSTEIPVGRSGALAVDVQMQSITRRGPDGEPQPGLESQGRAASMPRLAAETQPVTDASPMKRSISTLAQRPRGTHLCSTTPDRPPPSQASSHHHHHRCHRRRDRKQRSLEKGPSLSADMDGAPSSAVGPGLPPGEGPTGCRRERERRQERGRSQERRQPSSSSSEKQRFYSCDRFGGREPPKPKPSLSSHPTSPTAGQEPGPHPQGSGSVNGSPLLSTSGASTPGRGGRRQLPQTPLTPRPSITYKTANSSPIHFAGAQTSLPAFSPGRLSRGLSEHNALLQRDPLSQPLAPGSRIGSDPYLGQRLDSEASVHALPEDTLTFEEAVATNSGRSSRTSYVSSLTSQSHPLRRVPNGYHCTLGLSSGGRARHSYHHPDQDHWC
# T3 sequence (Q02410 whole entry): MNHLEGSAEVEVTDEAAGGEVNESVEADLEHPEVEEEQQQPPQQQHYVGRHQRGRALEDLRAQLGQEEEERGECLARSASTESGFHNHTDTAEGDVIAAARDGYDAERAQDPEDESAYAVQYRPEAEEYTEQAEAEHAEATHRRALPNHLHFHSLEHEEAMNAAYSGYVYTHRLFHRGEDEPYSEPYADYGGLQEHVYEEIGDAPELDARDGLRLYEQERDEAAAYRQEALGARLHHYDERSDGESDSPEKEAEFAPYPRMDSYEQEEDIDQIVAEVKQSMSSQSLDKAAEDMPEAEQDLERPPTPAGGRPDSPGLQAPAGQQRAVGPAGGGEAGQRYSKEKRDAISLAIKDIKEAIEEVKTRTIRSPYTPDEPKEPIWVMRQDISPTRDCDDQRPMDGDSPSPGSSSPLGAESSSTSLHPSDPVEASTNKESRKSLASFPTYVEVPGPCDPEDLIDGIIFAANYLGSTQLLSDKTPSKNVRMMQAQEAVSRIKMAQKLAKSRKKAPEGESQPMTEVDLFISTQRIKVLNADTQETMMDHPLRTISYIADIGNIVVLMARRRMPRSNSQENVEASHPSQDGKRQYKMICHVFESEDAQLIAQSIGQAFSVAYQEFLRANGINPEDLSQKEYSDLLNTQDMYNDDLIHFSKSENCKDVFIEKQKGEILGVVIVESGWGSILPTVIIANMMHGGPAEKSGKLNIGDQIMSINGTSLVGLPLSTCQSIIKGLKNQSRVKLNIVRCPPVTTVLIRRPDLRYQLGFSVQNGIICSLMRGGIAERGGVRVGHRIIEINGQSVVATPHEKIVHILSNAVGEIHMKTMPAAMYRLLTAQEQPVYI
# T4 sequence (P51452 whole entry): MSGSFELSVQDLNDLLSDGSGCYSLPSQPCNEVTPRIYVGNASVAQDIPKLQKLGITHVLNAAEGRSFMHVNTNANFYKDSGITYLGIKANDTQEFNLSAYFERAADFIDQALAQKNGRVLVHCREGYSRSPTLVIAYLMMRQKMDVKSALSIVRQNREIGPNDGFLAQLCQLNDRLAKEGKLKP
# Sequence of Mu-type opioid receptor (P35372 whole entry): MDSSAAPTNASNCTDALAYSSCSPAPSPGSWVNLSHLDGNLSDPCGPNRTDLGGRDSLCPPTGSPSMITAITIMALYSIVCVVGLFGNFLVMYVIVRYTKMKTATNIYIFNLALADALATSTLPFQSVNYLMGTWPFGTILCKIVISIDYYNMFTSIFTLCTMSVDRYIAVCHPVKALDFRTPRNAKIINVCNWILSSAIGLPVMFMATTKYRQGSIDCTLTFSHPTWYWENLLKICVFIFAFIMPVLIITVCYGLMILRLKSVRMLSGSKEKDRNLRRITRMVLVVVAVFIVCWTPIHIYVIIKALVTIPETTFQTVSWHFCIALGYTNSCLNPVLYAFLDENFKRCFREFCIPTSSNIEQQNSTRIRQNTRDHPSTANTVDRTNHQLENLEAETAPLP
structure (smiles),measurement,setting,value
C=C[C@H]1C[N@@]2CC[C@H]1C[C@@H]2[C@@H](O)c1ccnc2ccc(OC)cc12 [QUINIDINE],AC50,Cytochrome P450 2C9,inactive
same,AC50,Cytochrome P450 1A2,inactive
O=C(c1ccccc1)c1nn(-c2ccccc2)c(=O)cc1C(F)(F)F,AC50,Cytochrome P450 2D6,inconclusive
CCCN(CCC)Cc1c(C(=O)NN=C/C(C)=C\c2ccccc2)nnn1-c1nonc1N,EC50,Cannabinoid receptor 2 [1],> 32 µM (inactive)
same,EC50,[2],0.325 µM (active)
same,IC50,Cannabinoid receptor 2 [3],> 32 µM (inactive)
same,IC50,Cannabinoid receptor 1,> 32 µM (inactive)
CCOC(=O)C1=C(C)N=c2s/c(=C/c3ccc(OCC(=O)O)cc3)c(=O)n2C1c1ccc(SC)cc1 (stereo unspecified),IC50,[4],10.4 µM (active)
same,IC50,[5],9.18 µM (active)
same,IC50,[6],6.94 µM (active)
same,IC50,[7],> 50 µM (inactive)
same,IC50,[8],72.6 µM (active)
CCOC(=O)N1C(=O)C2(CCCCC2)N(c2ccc(C)cc2)C1=S,EC50,[9],> 285 µM (inactive)
CC(Oc1ccc(Br)cc1)C(=O)Nc1nc(-c2ccccn2)cs1 (stereo unspecified),IC50,[10],> 32 µM (inactive)
same,EC50,Beta-galactosidase,> 31.5 µM (inactive)
same,EC50,[11],5.27 µM (active)
same,EC50,[12],> 32 µM (inactive)
same,EC50,Mu-type opioid receptor,> 32 µM (inactive)
same,IC50,Vero [13],> 25 µM (active)
same,EC50,[14],0.909 µM (active)
same,IC50,[15],5.42 µM (active)
same,CC50,Vero [16],9.95 µM (active)
same,pIC50,[17],< 4.49
same,IC50,H9c2,> 79 µM (inactive)
same,EC50,Streptococcus,2.24 µM (active)
same,EC50,[18],0.211 µM (active)
Nc1nc2ccccc2n1S(=O)(=O)c1ccc(C(F)(F)F)cc1,IC50,[19],0.955 µM (active)
same,IC50,[20],> 20 µM (inactive)
same,IC50,HEK293,> 20 µM (inactive)
same,IC50,Tumor necrosis factor,> 20 µM (inactive)
O=C(N/N=C/c1cc([N+](=O)[O-])cc([N+](=O)[O-])c1O)C(O)(c1ccccc1)c1ccccc1,AC50,[21],3.47 µM (active)
same,IC50,Fatty acid synthase [22],8.77 µM (active)
same,IC50,Fatty acid synthase [23],16.1 µM (active)
same,AC50,[24],2 µM (active)
COc1cc(NC(=O)c2cc(C)on2)cc(C(=O)Nc2cccc(C(F)(F)F)c2)c1,AC50,[25],24.2 µM (active)
same,AC50,[26],11.6 µM (active)
